Experimental data taken from patent US20110016537A1, “Cellular model of tauopathies for lead identification and drug discovery” (Georg-August-Universitat Gottingen Stifung offentl, priority 2003, published 2011).

Columns and labels:
[1] = system: SHSY5Y neuroblastoma cells; assay: Apoptosis detection (TUNEL, activated caspase-3 immunolabeling) in SHSY5Y cells; type: cell-based, human; conditions: for cells showing signs of apoptosis (TUNEL): 48 h. post transfection
From the text: (§1) In order to analyse apoptosis induction in SHSY5Y neuroblastoma cells transfected with wild-type and triple mutant tau, the TUNEL method was used to label fragmented nuclear DNA, a characteristic marker of apoptosis. This was combined with the assessment of a second pathomorphological criteria: shrunken cell body with sparse cytosol and rounded cell morphology. Such a combination of criteria is considered sufficient to identify positively the occurrence of apoptosis (Stadelmann and Lassmann (2000) Cell Tissue Res. 301, 19-31). Since 48 hours after transfection a significant decrease in cell number and apparent cell degeneration is observed, this timepoint was chosen for the comparative analysis. At this timepoint the mode of degeneration, if apoptotic, should have been obvious. […] In FIG. 5a, apoptotic and non-apoptotic M123-transfected cells are shown, as well as a positive 50 nM staurosporin-treated neuroblastoma control. […] Activated caspase-3 immunolabeling, however, detected 18.66±0.93% apoptotic cells in M123 transfected neuroblastoma cells vs. 3.62±1.87% in wild-type transfected cells (p<0.01, Mann-Whitney U-test). The reason for this atypical apoptosis presentation in our system is unknown and awaits further elucidation. Next, in order to assess the real biological significance of apoptosis in the process of cell elimination, specific cell-permeable caspase-3 inhibitor and cytochrome c release inhibitor (both from Calbiochem, Germany) were used. Cells were treated 24 h. post transfection immediately after counting their reference number and incubated with apoptosis inhibitors until 60 h. post transfection in order to cover the time window with the highest decrease in cell number. […]

[2] = system: CHO cells; assay: Morphological aggregate formation after transfection in CHO cells; type: cell-based, Chinese hamster; conditions: 24 hrs post transfection
Description: On the contrary—in areas with bulky aggregation a deficit of the normal cytoskeletal configuration was observed. In order to visualize a difference in the biophysical properties of tau and aggregating mutants, FRAP (fluorescent recovery after photobleaching) analysis was performed in CHO-cells 24 hours after transfection, using wild-type tau and the triple (M123) mutant. Tau tagged with GFP represents a perfect tool for aggregation examination in living cells in real time. Apparent differences were found between wild-type tau and the triple mutant.
Transfection of cells was performed, using the Effectene Transfection Kit (Qiagen, Germany) according to the manufacturers instructions. Following addition of 4-8 μl enhancer solution, 0.5-1 μg DNA were incubated with 10 μl Effectene and 85 μl transfection buffer. All plasmids were purified using EndoFree Maxi Kit (Qiagen, Germany).
Confocal imaging was performed with a Leica TCS SP2 confocal system fitted with an AOBS (acousto-optical beam splitter) (Leica, Germany). The objectives used were 63× water or oil immersion; adjustments were as follows: Beam Expander 3, PMT—600-700 V, pinhole 1-1.4 airy disc, zoom—variable. Luminophore excitation was performed with an Argon-ion laser at 488 nm (for GFP), GreNe laser at 543 nm (for Cy3) and HeNe 643 nm (for Cy5).

[3] = system: SHSY5Y neuroblastoma cells; assay: Phosphoepitope immunocytochemistry (AT8, AT100, AT180) in SHSY5Y neuroblastoma cells; type: cell-based, human
Description: In order to examine the neurotoxicity of the mutant tau variants in human neuronal cell line, SHSY5Y neuroblastomas were used and the cell number of each preparation at 48 and 72 hours post transfection was normalized to the cell number in the same dish at 24 hours. […] The same effect was observed by the double mutants. Further, the presence of two specific pathological phosphoepitopes was tested using phosphospecific antibodies—AT8 (S202/T205 specific) and AT100 (T212/S214), the latter being exclusively specific for Alzheimer's disease NFTs and generally considered as the only AD-specific antibody by experts in the field of neuropathology. […] In the mutants (especially in the double and triple mutants) there was a very strong AT8 labeling, reaching 83.24±5.45% in M123 (FIG. 4c). […] This was accompanied by early phosphorylation, colocalizing with the initial tau aggregates. […] This mutant completely lacked a fragment which contains most phosphorylation sites of the projection domain (including the corresponding sites for AT8, AT100, AT180, AT270), thus confirming the independence of aggregation and phosphorylation. […] Another phosphoepitope that is highly specific for AD—T212/S214 (recognized by AT100 antibody), was present especially in double and triple mutants (FIG. 4d). In contrast to AT8, this immunolabeling was not observed in all aggregates, but only in those with bulky rounded or oval shape. […] Obviously, the formation of the T212/S214 phosphoepitope requires, apart from S202/T205 phosphoepitope formation (Schneider et al. (1999) Biochemistry 38, 3549-3558), also a specific conformational modification, apparently achieved with increase of mutant epitope number. In the M123 mutant 22.13±2.87% were also AT180 immunopositive (phosphoepitope T231) vs. none in wild-type tau transfectants (not shown). In order to assess the relative contribution of the aggregation, S202/T205 and T212/S214 phosphorylation to cell toxicity, multiple correlation analyses were performed. […]

[4] = system: CHO cells; assay: AT8-detected phosphorylation in CHO cells; type: cell-based, Chinese hamster; conditions: CHO cells (data not shown)
[5] = system: SHSY5Y neuroblastoma cells; assay: Cell survival of M123-transfected SHSY5Y cells with apoptosis inhibitors; type: cell-based, human; conditions: inhibitors on M123-transfected cells from 24 h. until 60 h. post transfection
From the text: as §1, with “elucidation.” for “elucidation. Next, in order to assess the real biological significance of apoptosis in the process of cell elimination, specific cell-permeable caspase-3 inhibitor and cytochrome c release inhibitor (both from Calbiochem, Germany) were used. Cells were treated 24 h. post transfection immediately after counting their reference number and incubated with apoptosis inhibitors until 60 h. post transfection in order to cover the time window with the highest decrease in cell number.”

Compound	cells showing signs of apoptosis (TUNEL) [1]	formation of morphologically apparent aggregates [2]	AT100 (T212/S214) immunolabeling [3]	AT180 (phosphoepitope T231) immunopositive cells [3]	AT8 (S202/T205) immunolabeled cells ([3]; 36 h. after transfection) [%]	AT8-detected phosphorylation [4]	apoptotic cells by activated caspase-3 immunolabeling [1] [%]	cell survival [5] [%]
CN[C@@H]1C[C@H]2O[C@@](C)([C@@H]1OC)n1c3ccccc3c3c4c(c5c6ccccc6n2c5c31)C(=O)NC4 [staurosporin]	TUNEL-positive nuclei	–	–	–	–	–	–	–
wild-type tau: wild-type human tau 441, SEQ ID NO.:25, used as control [reference compound]	5.97±1.54%	normal MT (microtubule) association without aggregates	did not label	none	9.17±2.3	only a slight pattern	3.62±1.87	87.86±12.4
